According to US10150728B2, “Alkylene derivatives” (Shionogi & Co., Ltd., priority 2013, dated 2018):

molecular target: recombinant human ACC2 (Homo sapiens (Human), UniProt O00763); assay: Measurement of inhibitory activity on human ACC2 (MALDI-TOF MS, acetyl CoA to malonyl CoA conversion); assay type: biochemical; details: Tables 155-159
Outline: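 His-tagged human ACC2 (residues 27–2458) from baculovirus-infected Sf-9 cells was preincubated 1 h in pH 7.4 HEPES-KOH buffer with MgCl2, 6-10 mM potassium citrate, glutathione and BSA. Substrate solution held 1 mM ATP, 0.8 mM acetyl CoA and 25-50 mM bicarbonate. After 1–3 h at room temperature, malonyl CoA/(malonyl+acetyl CoA) was read by negative-mode MALDI-TOF MS; citrate, bicarbonate and time varied by enzyme lot.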

recombinant human ACC2, sequence (O00763 27-2458): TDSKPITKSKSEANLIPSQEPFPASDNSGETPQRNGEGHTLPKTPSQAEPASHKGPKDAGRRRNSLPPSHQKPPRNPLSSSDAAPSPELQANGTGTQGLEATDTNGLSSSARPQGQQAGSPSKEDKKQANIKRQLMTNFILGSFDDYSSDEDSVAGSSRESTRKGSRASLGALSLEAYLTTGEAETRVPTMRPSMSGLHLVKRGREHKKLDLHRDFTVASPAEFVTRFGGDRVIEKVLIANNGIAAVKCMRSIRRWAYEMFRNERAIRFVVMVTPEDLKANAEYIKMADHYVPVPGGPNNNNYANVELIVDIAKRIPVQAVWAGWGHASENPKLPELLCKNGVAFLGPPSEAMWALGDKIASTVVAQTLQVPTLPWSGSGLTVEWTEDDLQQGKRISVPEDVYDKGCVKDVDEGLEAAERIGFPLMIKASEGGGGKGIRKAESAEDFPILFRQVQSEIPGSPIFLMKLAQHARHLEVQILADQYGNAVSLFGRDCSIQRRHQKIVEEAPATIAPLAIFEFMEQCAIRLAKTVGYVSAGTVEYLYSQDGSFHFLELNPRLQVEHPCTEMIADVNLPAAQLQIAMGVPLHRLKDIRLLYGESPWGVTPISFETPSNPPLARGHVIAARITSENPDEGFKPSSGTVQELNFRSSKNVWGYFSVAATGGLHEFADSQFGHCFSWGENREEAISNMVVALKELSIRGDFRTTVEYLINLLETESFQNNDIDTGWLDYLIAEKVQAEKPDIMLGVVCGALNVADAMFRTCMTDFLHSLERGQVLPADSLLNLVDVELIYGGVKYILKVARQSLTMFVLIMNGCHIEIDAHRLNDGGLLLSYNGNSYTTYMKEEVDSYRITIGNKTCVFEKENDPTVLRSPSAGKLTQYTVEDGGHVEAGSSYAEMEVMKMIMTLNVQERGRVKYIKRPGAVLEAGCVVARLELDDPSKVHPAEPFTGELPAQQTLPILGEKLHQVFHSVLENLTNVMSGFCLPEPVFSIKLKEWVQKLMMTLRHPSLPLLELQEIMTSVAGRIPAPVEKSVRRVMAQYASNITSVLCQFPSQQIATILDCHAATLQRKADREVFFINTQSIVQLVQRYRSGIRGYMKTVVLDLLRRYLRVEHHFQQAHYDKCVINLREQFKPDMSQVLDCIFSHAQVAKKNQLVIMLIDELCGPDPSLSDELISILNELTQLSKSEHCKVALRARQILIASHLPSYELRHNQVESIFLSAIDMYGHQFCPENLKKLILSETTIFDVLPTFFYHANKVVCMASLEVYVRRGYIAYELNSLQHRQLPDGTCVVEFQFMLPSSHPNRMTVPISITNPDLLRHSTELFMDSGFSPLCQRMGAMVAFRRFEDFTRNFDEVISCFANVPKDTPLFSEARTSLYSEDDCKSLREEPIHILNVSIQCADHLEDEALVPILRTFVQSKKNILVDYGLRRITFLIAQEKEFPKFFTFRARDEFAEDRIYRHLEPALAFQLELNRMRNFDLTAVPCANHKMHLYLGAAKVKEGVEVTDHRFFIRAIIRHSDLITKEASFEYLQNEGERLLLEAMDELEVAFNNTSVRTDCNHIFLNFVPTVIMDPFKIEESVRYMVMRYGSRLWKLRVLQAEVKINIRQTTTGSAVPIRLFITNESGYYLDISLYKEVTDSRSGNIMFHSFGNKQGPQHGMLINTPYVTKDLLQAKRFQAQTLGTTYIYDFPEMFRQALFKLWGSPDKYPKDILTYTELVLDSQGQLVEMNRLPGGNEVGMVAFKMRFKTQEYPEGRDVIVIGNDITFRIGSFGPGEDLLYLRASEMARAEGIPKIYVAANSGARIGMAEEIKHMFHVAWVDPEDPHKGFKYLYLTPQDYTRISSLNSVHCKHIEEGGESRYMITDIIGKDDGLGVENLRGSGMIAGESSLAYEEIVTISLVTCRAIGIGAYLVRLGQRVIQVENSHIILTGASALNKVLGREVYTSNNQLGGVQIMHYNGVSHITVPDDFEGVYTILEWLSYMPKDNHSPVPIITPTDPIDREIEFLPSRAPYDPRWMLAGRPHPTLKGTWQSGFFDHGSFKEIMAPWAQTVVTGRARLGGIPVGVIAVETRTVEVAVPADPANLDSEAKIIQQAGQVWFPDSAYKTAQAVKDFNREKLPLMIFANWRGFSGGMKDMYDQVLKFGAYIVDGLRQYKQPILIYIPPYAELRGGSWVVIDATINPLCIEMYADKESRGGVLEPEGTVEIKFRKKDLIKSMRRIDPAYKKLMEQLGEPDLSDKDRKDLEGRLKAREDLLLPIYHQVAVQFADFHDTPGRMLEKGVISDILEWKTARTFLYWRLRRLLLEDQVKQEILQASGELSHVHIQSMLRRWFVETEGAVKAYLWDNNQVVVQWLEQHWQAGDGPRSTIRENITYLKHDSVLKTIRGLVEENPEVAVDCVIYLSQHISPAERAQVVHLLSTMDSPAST

| Structure (SMILES) | IC50 |
| --- | --- |
| CC(=O)N[C@@H](C)CO[C@H]1CC[C@H](Oc2ncc3c(Cl)c(OCC4CC4)ccc3n2)CC1 [Compound I-555] | 34 nM |
| CC(=O)N[C@@H](C)CO[C@H]1CC[C@H](Oc2nc3ccc(Br)cc3n2C)CC1 [Compound I-556] | 105 nM |
| CC(=O)N[C@@H](C)CO[C@H]1CC[C@H](Oc2nc3cc(Br)ccc3n2C)CC1 [Compound I-557] | 216 nM |
| CC(=O)N[C@@H](C)CO[C@H]1CC[C@H](Oc2nc3ccc(OCc4ccccc4)cc3n2C)CC1 [Compound I-558] | 43 nM |
| CCOc1ccc2nc(O[C@H]3CC[C@H](OC[C@H](C)NC(C)=O)CC3)n(C)c2c1 [Compound I-559] | 43 nM |
| CC(=O)N[C@@H](C)CO[C@H]1CC[C@H](Oc2nc3ccc(OC(C)C)cc3n2C)CC1 [Compound I-560] | 101 nM |
| CC(=O)N[C@@H](C)CO[C@H]1CC[C@H](Oc2nc3ccc(OCC4CC4)cc3n2C)CC1 [Compound I-561] | 104 nM |
| CCOc1ccc2nc(O[C@H]3CC[C@H](OC[C@H](C)NC(C)=O)CC3)n(C(C)C)c2c1 [Compound I-562] | 350 nM |
| CCOc1cc2c(cn1)nc(O[C@H]1CC[C@H](OC[C@H](C)NC(C)=O)CC1)n2C [Compound I-563] | 101 nM |
| CCOc1ccc2c(c1)nc(O[C@H]1CC[C@H](OC[C@H](C)NC(C)=O)CC1)n2C [Compound I-564] | 385 nM |
| CC(=O)N[C@@H](C)CO[C@H]1CC[C@H](Oc2nc3cc(OC(C)C)ccc3n2C)CC1 [Compound I-566] | 304 nM |
| CC(=O)N[C@@H](C)CO[C@H]1CC[C@H](Oc2nc3cc(OCC4CC4)ccc3n2C)CC1 [Compound I-567] | 167 nM |
| CCOc1ccc2nc(O[C@H]3CC[C@H](OC[C@H](C)NC(C)=O)CC3)n(C3CC3)c2c1 [Compound I-568] | 225 nM |
| CC(=O)N[C@@H](C)CO[C@H]1CC[C@H](Oc2nc3ccc(OCC(F)F)cc3n2C)CC1 [Compound I-569] | 86 nM |
| COc1ccc2c(c1)nc(O[C@H]1CC[C@H](OC[C@H](C)NC(C)=O)CC1)n2C [Compound I-570] | 935 nM |
| CC(=O)N[C@@H](C)CO[C@H]1CC[C@H](Oc2nc3ccc(OCC(F)(F)F)cc3n2C)CC1 [Compound I-571] | 166 nM |
| CC(=O)N[C@@H](C)CO[C@H]1CC[C@H](Oc2nc3ccc(OC(F)(F)F)cc3n2C)CC1 [Compound I-572] | 227 nM |
| CCCc1ccc2nc(O[C@H]3CC[C@H](OC[C@H](C)NC(C)=O)CC3)n(C)c2c1 [Compound I-573] | 68 nM |
| CC(=O)N[C@@H](C)CO[C@H]1CC[C@H](Oc2nc3ccc(C4CC4)cc3n2C)CC1 [Compound I-574] | 129 nM |
| CCSc1ccc2nc(O[C@H]3CC[C@H](OC[C@H](C)NC(C)=O)CC3)n(C)c2c1 [Compound I-577] | 62 nM |
| CC(=O)N[C@@H](C)CO[C@H]1CC[C@H](Oc2nc3ccc(SCC(C)C)cc3n2C)CC1 [Compound I-578] | 110 nM |
| CCOc1ccc2nc(O[C@H]3CC[C@H](OC[C@H](C)NC(C)=O)CC3)n(CC)c2c1 [Compound I-579] | 334 nM |
| CC(=O)N[C@@H](C)CO[C@H]1CC[C@H](Oc2nc3ccc(-c4ccccc4)cc3n2C)CC1 [Compound I-582] | 168 nM |

| Structure (SMILES) | IC50 |
| --- | --- |
| CCc1ccc2nc(O[C@H]3CC[C@H](OC[C@H](C)NC(C)=O)CC3)n(C)c2c1 [Compound I-583] | 71 nM |
| CC(=O)N[C@@H](C)CO[C@H]1CC[C@H](Oc2nc3ccc(C(C)C)cc3n2C)CC1 [Compound I-585] | 77 nM |
| CC(=O)N[C@@H](C)CO[C@H]1CC[C@H](Oc2nc3ccc(Oc4ccccc4)cc3n2C)CC1 [Compound I-586] | 9 nM |
| CC(=O)N[C@@H](C)CO[C@H]1CC[C@H](Oc2nc3cc(C(F)(F)F)ccc3n2C)CC1 [Compound I-587] | 87 nM |
| CC(=O)N[C@@H](C)CO[C@H]1CC[C@H](Oc2nc3ccc(Oc4ccccn4)cc3n2C)CC1 [Compound I-590] | 584 nM |
| CC(=O)N[C@@H](C)CO[C@H]1CC[C@H](Oc2nc3cnc(Oc4ccccc4)cc3n2C)CC1 [Compound I-592] | 110 nM |
| CC(=O)N[C@@H](C)CO[C@H]1CC[C@H](Oc2nc3ccc(Oc4cccnc4)cc3n2C)CC1 [Compound I-593] | 80 nM |
| CC(=O)N[C@@H](C)CO[C@H]1CC[C@H](Oc2nc3ccc(Oc4ccncc4)cc3n2C)CC1 [Compound I-594] | 383 nM |
| CC(=O)N[C@@H](C)CO[C@H]1CC[C@H](Oc2nc3ccc(Oc4ccc(F)cc4)cc3n2C)CC1 [Compound I-596] | 10 nM |
| COc1ccc2nc(O[C@H]3CC[C@H](OC[C@H](C)NC(C)=O)CC3)n(C)c2c1F [Compound I-599] | 23 nM |
| CC(=O)N[C@@H](C)CO[C@H]1CC[C@H](Oc2nc3ccc(OCc4ccccc4)c(F)c3n2C)CC1 [Compound I-600] | 13 nM |
| CCOc1ccc2nc(O[C@H]3CC[C@H](OC[C@H](C)NC(C)=O)CC3)n(C)c2c1F [Compound I-601] | 8 nM |
| CC(=O)N[C@@H](C)CO[C@H]1CC[C@H](Oc2nc3ccc(OC(C)C)c(F)c3n2C)CC1 [Compound I-602] | 12 nM |
| CCOc1c(Cl)cc2nc(O[C@H]3CC[C@H](OC[C@H](C)NC(C)=O)CC3)n(C)c2c1Cl [Compound I-603] | 7 nM |
| CCOc1ccc2nc(O[C@H]3CC[C@H](OC[C@H](C)NC(C)=O)CC3)n(C)c2c1Cl [Compound I-604] | 6 nM |
| CCOc1ccc2nc(O[C@H]3CC[C@H](OC[C@H](C)NC(C)=O)CC3)n(C)c2c1Br [Compound I-605] | 13 nM |
| CCOc1ccc2nc(O[C@H]3CC[C@H](OC[C@H](C)NC(C)=O)CC3)n(C)c2c1C [Compound I-606] | 74 nM |
| CC(=O)N[C@@H](C)CO[C@H]1CC[C@H](Oc2nc3cnc(OC(C)C)cc3n2C)CC1 [Compound I-607] | 110 nM |
| CC(=O)N[C@@H](C)CO[C@H]1CC[C@H](Oc2nc3cnc(OC[C@H](C)F)c(Cl)c3n2C)CC1 [Compound I-608] | 11 nM |
| CC(=O)N[C@@H](C)CO[C@H]1CC[C@H](Oc2nc3c(Cl)c(Cl)c(OCC(F)F)cc3n2C)CC1 [Compound I-609] | 525 nM |
| CCOc1cc2c(nc(O[C@H]3CC[C@H](OC[C@H](C)NC(C)=O)CC3)n2C)c(F)c1Cl [Compound I-610] | 85 nM |
| CC(=O)N[C@@H](C)CO[C@H]1CC[C@H](Oc2nc3c(F)cc(OC4CC4)c(F)c3n2C)CC1 [Compound I-611] | 3 nM |
| C[C@@H](CO[C@H]1CC[C@H](Oc2nc3c(F)cc(OCC(F)F)c(F)c3n2C)CC1)NC(=O)C(F)F [Compound I-614] | 11 nM |

| Structure (SMILES) | IC50 |
| --- | --- |
| CC(=O)N[C@@H](C)CC[C@H]1OC[C@H](Oc2nc3c(F)cc(OCC(F)F)c(F)c3n2C)CO1 [Compound I-615] | 27 nM |
| CC(=O)N[C@@H](C)CO[C@H]1CC[C@H](Oc2nc3c(F)cc(OC4CN(C(C)=O)C4)c(F)c3n2C)CC1 [Compound I-616] | 240 nM |
| CC(=O)N[C@@H](C)CO[C@H]1CC[C@H](Oc2nc3c(C#N)cc(OC4CC4)c(F)c3n2C)CC1 [Compound I-617] | 9 nM |
| CC(=O)N[C@@H](C)CO[C@H]1CC[C@H](Oc2nc3c(Cl)c(F)c(OCC(F)F)c(F)c3n2C)CC1 [Compound I-618] | 17 nM |
| CC(=O)N[C@@H](C)CO[C@H]1CC[C@H](Oc2nc3c(F)c(F)c(F)c(F)c3n2C)CC1 [Compound I-619] | 9 nM |
| CC(=O)N[C@@H](C)CO[C@H]1CC[C@H](Oc2nc3cnc(OCc4ccccc4)c(Cl)c3n2C)CC1 [Compound I-620] | 28 nM |
| CC(=O)N[C@@H](C)CO[C@H]1CC[C@H](Oc2nc3ccc(C4CC4)c(F)c3n2C)CC1 [Compound I-621] | 8 nM |
| CC(=O)N[C@@H](C)CO[C@H]1CC[C@H](Oc2nc3c(F)cc(Br)cc3n2C)CC1 [Compound I-622] | 72 nM |
| CC(=O)N[C@@H](C)CO[C@H]1CC[C@H](Oc2nc3c(Cl)cc(OCC(F)F)c(Cl)c3n2C)CC1 [Compound I-623] | 17 nM |
| CC(=O)N[C@@H](C)CO[C@H]1CC[C@H](Oc2nc3cnc(OCC(F)F)c(F)c3n2C)CC1 [Compound I-624] | 9 nM |
| CC(=O)N[C@@H](C)CO[C@H]1CC[C@H](Oc2nc3cnc(OCC4CC4)c(F)c3n2C)CC1 [Compound I-625] | 5 nM |
| CC(=O)N[C@@H](C)CO[C@H]1CC[C@H](Oc2nc3c(F)cc(OCC4CC4)c(F)c3n2C)CC1 [Compound I-626] | 6 nM |
| CC(=O)N[C@@H](C)CC[C@@H]1CC[C@@H](Oc2nc3c(F)cc(OCC(F)F)c(F)c3n2C)CO1 [Compound I-627] | 5 nM |
| C[C@@H](CO[C@H]1CC[C@H](Oc2nc3c(F)cc(OCC(F)F)c(F)c3n2C)CC1)NC(=O)CO [Compound I-628] | 59 nM |
| C[C@@H](CO[C@H]1CC[C@H](Oc2nc3c(F)cc(OCC(F)F)c(F)c3n2C)CC1)NC(=O)c1cnn(C)c1 [Compound I-629] | 98 nM |
| CC(=O)N[C@@H](C)CO[C@H]1CC[C@H](Oc2nc3c(F)cc(F)c(F)c3n2C)CC1 [Compound I-630] | 25 nM |
| C[C@@H](CO[C@H]1CC[C@H](Oc2nc3c(F)cc(OCC(F)F)c(F)c3n2C)CC1)NC(=O)N(C)C [Compound I-631] | 10 nM |
| CC(=O)N[C@@H](C)CO[C@H]1CC[C@H](Oc2nc3c(C)nc(OC4CC4)c(F)c3n2C)CC1 [Compound I-632] | 19 nM |
| CC(=O)N[C@@H](C)CO[C@H]1CC[C@H](Oc2nc3cnc(OCc4ccccc4)c(F)c3n2C)CC1 [Compound I-634] | 34 nM |
| CCOc1cc(F)c2c(nc(O[C@H]3CC[C@H](OC[C@H](C)NC(C)=O)CC3)n2C)c1F [Compound I-635] | 104 nM |
| CC(=O)N[C@@H](C)CC[C@H]1CC[C@H](Oc2nc3cnc(OC4CC4)c(Cl)c3n2C)CC1 [Compound I-636] | 4 nM |
| CC(=O)N[C@@H](C)CO[C@H]1CC[C@H](Oc2nc3c(F)cc(OCC(F)F)c(Cl)c3n2C)CC1 [Compound I-637] | 4 nM |
| CC(=O)N[C@@H](C)CO[C@H]1CC[C@H](Oc2nc3c(Cl)ccc(F)c3n2C)CC1 [Compound I-638] | 140 nM |
